Patent publication US6835745B2, “Phenyl substituted thiophenes as estrogenic agents” (Wyeth, priority 2002, dated 2004)

Tests used:
human ERβ = target: T1, human ERβ (Homo sapiens, UniProt Q92731); test: Radioligand binding competition with [3H]-17β-estradiol, ERβ; settings: human ERβ ligand binding domain extract, read-out: ER-β IC50
T1 construct: M214-Q530 of human ERβ; Flag (C); made in house; host or cells: E. coli BL21(DE3), clarified lysate

human ERα = target: T2, human ERα (Homo sapiens, UniProt P03372); test: Radioligand binding competition with [3H]-17β-estradiol, ERα; settings: human ERα ligand binding domain extract, read-out: ER-α IC50
T2 construct: amino acids M250-V595 of human ERα; His (N); Flag (C); made in house; host or cells: E. coli BL21(DE3), clarified lysate
T2 sequence (P03372 250-595): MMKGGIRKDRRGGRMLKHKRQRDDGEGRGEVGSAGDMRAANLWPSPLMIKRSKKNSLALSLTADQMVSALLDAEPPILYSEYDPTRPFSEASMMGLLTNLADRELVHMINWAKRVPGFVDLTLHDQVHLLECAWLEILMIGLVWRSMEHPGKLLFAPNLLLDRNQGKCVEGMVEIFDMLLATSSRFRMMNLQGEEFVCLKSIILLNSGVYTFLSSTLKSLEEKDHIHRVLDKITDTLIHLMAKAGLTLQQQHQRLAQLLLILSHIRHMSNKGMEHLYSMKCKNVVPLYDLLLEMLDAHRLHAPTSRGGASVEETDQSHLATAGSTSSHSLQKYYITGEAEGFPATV

[1] = tested on: metallothionein-II mRNA in Saos-2 cells; test: Regulation of metallothionein II mRNA in Saos-2 cells; type: cell-based
Source text: Estrogens acting through ERβ, but not ERα can upregulate metallothionein II mRNA levels in Saos-2 cells as described by Harris [Endocrinology 142: 645-652 (2001)]. Results from this test procedure can be combined with results from the test procedure described below (ERE reporter test procedure) to generate a selectivity profile for compounds of this invention (see also WO 00/37681).

T1 sequence (Q92731 214-530): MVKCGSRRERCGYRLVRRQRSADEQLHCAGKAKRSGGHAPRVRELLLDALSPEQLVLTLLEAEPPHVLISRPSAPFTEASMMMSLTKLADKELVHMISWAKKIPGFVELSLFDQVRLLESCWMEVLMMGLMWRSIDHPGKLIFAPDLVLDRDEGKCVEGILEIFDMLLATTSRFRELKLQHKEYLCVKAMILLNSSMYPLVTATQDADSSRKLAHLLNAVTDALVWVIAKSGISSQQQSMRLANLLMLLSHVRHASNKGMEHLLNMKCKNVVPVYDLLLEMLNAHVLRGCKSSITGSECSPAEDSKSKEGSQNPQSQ

IC50 (human ERβ)	IC50 (human ERα)	melting point	SMILES	Fold upregulation of metallothionein-II mRNA [1]
91 nM	275 nM	–	Cc1c(-c2ccc(O)cc2)sc(C=NO)c1-c1cccc(O)c1 (mixture of isomers) [Example 16, 3-(3-Hydroxyphenyl)-5-(4-hydroxyphenyl)-4-methylthiophene-2-carbaldehyde oxime]	–
42 nM	86 nM	–	Cc1c(-c2ccc(O)cc2)sc(C=NO)c1-c1ccc(O)cc1 (mixture of isomers) [Example 18, 3,5-Bis(4-hydroxyphenyl)-4-methylthiophene-2-carbaldehyde oxime]	–
123 nM	196 nM	240 to 241 °C	Cc1c(-c2cccc(O)c2)sc(C=NO)c1-c1ccc(O)cc1 (mixture of isomers) [Example 21, 3-(4-Hydroxyphenyl)-5-(3-hydroxyphenyl)-4-methylthiophene-2-carbaldehyde oxime]	–
54 nM	212 nM	103 to 104 °C	Cc1c(-c2ccc(O)cc2)sc(C=O)c1-c1cccc(O)c1 [Example 1, 3-(3-Hydroxyphenyl)-5-(4-hydroxyphenyl)-4-methylthiophene-2-carbaldehyde]	–
5.5 nM	29 nM	244 to 247 °C	Cc1cc(O)ccc1-c1c(C=O)sc(-c2ccc(O)cc2)c1C [Example 3, 3-(4-Hydroxy-2-methylphenyl)-5-(4-hydroxyphenyl)-4-methyl-2-thiophenecarbaldehyde]	–
174 nM	464 nM	–	Cc1ccc(O)cc1-c1c(C=O)sc(-c2ccc(O)cc2)c1C [Example 4, 3-(5-Hydroxy-2-methylphenyl)-5-(4-hydroxyphenyl)-4-methyl-2-thiophenecarbaldehyde]	–
1.8 nM	35.5 nM	–	Cc1c(-c2ccc(O)cc2)sc(C=O)c1-c1ccc(O)c(F)c1 [Example 5, 3-(3-Fluoro-4-hydroxyphenyl)-5-(4-hydroxyphenyl)-4-methyl-2-thiophenecarbaldehyde]	–
71 nM	515 nM	228 to 230 °C	Cc1c(-c2ccc(O)cc2)sc(C=O)c1-c1ccc(O)c(C=O)c1 [Example 6, 3-(3-Formyl-4-hydroxyphenyl)-5-(4-hydroxyphenyl)-4-methyl-2-thiophenecarbaldehyde]	–
1.7 nM	31 nM	–	Cc1c(-c2ccc(O)cc2)sc(C=O)c1-c1ccc(O)c(Cl)c1 [Example 7, 3-(3-Chloro-4-hydroxyphenyl)-5-(4-hydroxyphenyl)-4-methylthiophene-2-carbaldehyde]	–
5.3 nM	93 nM	227 to 229 °C	Cc1c(-c2ccc(O)c(F)c2)sc(C=O)c1-c1ccc(O)cc1 [Example 8, 5-(3-Fluoro-4-hydroxyphenyl)-3-(4-hydroxyphenyl)-4-methyl-2-thiophenecarbaldehyde]	–
12 nM	85 nM	–	Cc1cc(O)ccc1-c1c(C=O)sc(-c2ccc(O)c(F)c2)c1C [Example 9, 5-(3-Fluoro-4-hydroxyphenyl)-3-(4-hydroxy-2-methylphenyl)-4-methylthiophene-2-carbaldehyde]	–
4 nM	88 nM	252 to 254 °C	Cc1c(-c2ccc(O)c(F)c2)sc(C=O)c1-c1ccc(O)c(Cl)c1 [Example 10, 3-(3-Chloro-4-hydroxyphenyl)-5-(3-fluoro-4-hydroxyphenyl)-4-methylthiophene-2-carbaldehyde]	–
7.8 nM	68 nM	–	Cc1cc(O)ccc1-c1sc(C=O)c(-c2ccc(O)cc2)c1C [Example 11, 5-(4-Hydroxy-2-methylphenyl)-3-(4-hydroxyphenyl)-4-methyl-2-thiophenecarbaldehyde]	–
13 nM	89 nM	–	Cc1cc(O)ccc1-c1sc(C=O)c(-c2ccc(O)c(F)c2)c1C [Example 12, 3-(3-Fluoro-4-hydroxyphenyl)-5-(4-hydroxy-2-methylphenyl)-4-methylthiophene-2-carbaldehyde]	–
27 nM	293 nM	–	Cc1c(-c2ccc(O)c(Cl)c2)sc(C=O)c1-c1ccc(O)cc1 [Example 13, 5-(3-Chloro-4-hydroxyphenyl)-3-(4-hydroxyphenyl)-4-methylthiophene-2-carbaldehyde]	–
16 nM	157 nM	227 to 229 °C	Cc1c(-c2ccc(O)c(Cl)c2)sc(C=O)c1-c1ccc(O)c(F)c1 [Example 14, 5-(3-Chloro-4-hydroxyphenyl)-3-(3-fluoro-4-hydroxyphenyl)-4-methylthiophene-2-carbaldehyde]	–
2.1 nM	31 nM	223 to 225 °C	Cc1c(-c2ccc(O)cc2)sc(C=O)c1-c1ccc(O)cc1 [Example 15, 3,5-Bis(4-hydroxyphenyl)-4-methylthiophene-2-carbaldehyde]	6.0
83 nM	305 nM	220 to 222 °C	Cc1c(-c2ccc(O)cc2)sc(C#N)c1-c1cccc(O)c1 [Example 17, 3-(3-Hydroxyphenyl)-5-(4-hydroxyphenyl)-4-methylthiophene-2-carbonitrile]	–
3.6 nM	40 nM	–	Cc1c(-c2ccc(O)cc2)sc(C#N)c1-c1ccc(O)cc1 [Example 19, 3,5-Bis(4-hydroxyphenyl)-4-methylthiophene-2-carbonitrile]	–
28 nM	152 nM	–	CON=Cc1sc(-c2ccc(O)cc2)c(C)c1-c1ccc(O)cc1 [Example 20, 3,5-Bis(4-hydroxyphenyl)-4-methylthiophene-2-carbaldehyde O-methyloxime]	–
73 nM	299 nM	–	Cc1c(-c2cccc(O)c2)sc(C#N)c1-c1ccc(O)cc1 [Example 22, 3-(4-Hydroxyphenyl)-5-(3-hydroxyphenyl)-4-methylthiophene-2-carbonitrile]	–
57 nM	73 nM	172 to 177 °C	CON=Cc1sc(-c2ccc(O)cc2C)c(C)c1-c1ccc(O)c(F)c1 [Example 23, 3-(3-Fluoro-4-hydroxyphenyl)-5-(4-hydroxy-2-methylphenyl)-4-methylthiophene-2-carbaldehyde O-methyloxime]	–
